US10308938B2, “Compositions and methods to activate or inhibit toll-like receptor signaling” (priority 2014, dated 2019)
“Also recorded” adds a separate entry of the source.

Legend:
[1] = tested on: HIV-1NL-D; assay: HIV-1 in vitro infection of CD4+ T cells; assay type: cell-based; conditions: treatment before infection, MOI 0.001
Description: Preparation of HIV-1 virus stocks. HIV-1 proviral DsRed-tagged DNA pNL-D (derived from the prototype HIV-1 proviral DNA pNL432) was kindly provided by Dr. Yasuko Tsunetsugu-Yokota. 293T cells were used to prepare viral stocks following published protocols with minor modifications. In brief, 293T cells were plated at 0.5×10^6/well in 12-well plates and transfected with 2 μg pNL-D using Lipofectamine 2000 (Invitrogen) for 48 hours. Culture supernatant was treated with benzonase (1U/ml) for 30 minutes at 37 C, cleared by filtration and titrated on 293T cells. Stocks were stored at −80 C.
HIV-1 in vitro infection. CD4^+ T cells were stimulated with anti-CD3 (1 μg/ml) and anti-CD28 (1 μg/ml) for 48 hours and subsequently infected with HIV-1 at a MOI of 0.001 (concentration within the physiological range). Viability and cytokine secretion was measured every 48 hours for a total of 11 days after infection.
For HIV-1 infection on TLR7-deficient cells, CD4^+ T cells were stimulated as above and transduced with the corresponding lentiviral particles. 48 hours after transduction, the cells were infected with HIV-1NL-D at a MOI of 0.001. Viability and frequency of HIV-1-infected cells were measured at different time points by LIVE/DEAD cell dye staining and fixation with 1% PFA (to avoid DsRed signal loss). For intracellular staining after infection, the cells were restimulated with PMA and Ionomycin in the presence of GolgiStop for 4 hours and the staining was performed as recommended by Grupillo et al.

[2] = tested on: CD4^+ T cells; assay: Cytokine secretion by stimulated CD4+ T cells, ELISA; assay type: cell-based, human; conditions: day 3 after stimulation
From the text: (§1) Cell activation and intracellular staining.
(§2) Enzyme-linked immunosorbent assay.

[3] = tested on: CD4^+ T cells; assay: Proliferation of CFSE-labeled CD4+ T cells stimulated with anti-CD3 and anti-CD28 in the presence of TLR ligands; assay type: cell-based, human; conditions: compared to control
From the text: Cell isolation and FACS sorting of T cell populations. Peripheral blood mononuclear cells (PBMC) were isolated from healthy donors by Ficoll Hypaque gradient centrifugation. Total CD4^+ T cells were isolated by negative selection using CD4^+ T cell isolation kit (StemCell Technologies, Vancouver, BC) and stained for fluorescence-activated cell sorting (FACS) with the following antibodies: anti-CD45RO (clone UCHL1), CD45RA (clone H1100), CD25 (clone M-A251) (all from BD Biosciences) and CD127 (clone eBioRDR5) from eBioscience (San Diego, Calif.). The Treg (CD4^+CD25^hiCD127^low/neg) memory T cell (CD4^+CD45RA^−CD45RO^+CD25^low/neg+) and naïve T cell (CD4^+CD45RA^+CD45RO^−CD25^low/neg) populations were sorted on a FACS Aria (BD Biosciences). Unless specified, CD4^+ T cells used in the experiments were Treg-depleted CD4^+ T cells and they were sorted as CD4^+CD25^pos/lowCD127^+. The purity of the sorted CD4^+ T cell population was >98% as assessed by CD3 and CD4 staining after sort. CD14^+ cells were isolated by positive selection using EasySep™ Human CD14 Positive Selection Kit (StemCell Technologies).
as §1
While examining the costimulatory role of TLR on CD4^+ T cells, it was unexpectedly discovered that entry of CD4^+ cells into cell cycle with T cell receptor cross-linking and anti-CD28 was blocked by TLR7 engagement. Specifically, CD4^+ T cells were stimulated with anti-CD3 and anti-CD28 in the presence of different TLR agonists followed by analysis of proliferation and cytokine secretion.

[4] = tested on: CD4^+ T cells; assay: shRNA-transduced CD4+ T cells stimulated in the presence or absence of IMQ; assay type: cell-based, human
From the text: as §2
(§3) Quantification of mRNA expression levels by RT-PCR. RNA was isolated using QIAGEN RNeasy Micro Plus Kit (QIAGEN, Valencia, Calif.), following manufacturer's guidelines and converted to cDNA by reverse transcription (RT) with random hexamers and Multiscribe RT (TQMN, Reverse Transcription Reagents; Applied Biosystems, Foster City, Calif.). For mRNA gene expression assays, probes were purchased from Applied Biosystems (Table 2) and the reactions were set up following manufacturer's guidelines and run on a StepOne Real-Time PCR System (Applied Biosystems). Values are represented as the difference in Ct values normalized to β2-microglobulin for each sample as per the following formula: Relative RNA expression=(2^−dCt)×1000.
Gene silencing by lentiviral transduction. Lentiviral particles encoding shRNAs were obtained from Sigma-Aldrich (NFAT1 clone TRCN0000016144, TLR7 clones 3 and 4 TRCN0000056973 and TRCN0000056974, respectively). 5×10^4 CD4^+ T cells per well were stimulated with plate-bound anti-CD3 (1 μg/ml) and soluble anti-CD28 (1 μg/ml) for 12 h before transduction. Cells were then transduced with viral particles containing a vector expressing the indicated specific shRNA (NFAT1 or TLR7) or a non-target shRNA as a control at a multiplicity of infection of 4. All constructions contained the coding sequence for GFP. After 5 days in culture, transduced cells were sorted based on GFP expression and the efficiency of gene silencing was determined by TaqMan real-time PCR and protein staining.

[5] = tested on: CD4^+ T cells; assay: Anergy-related gene expression, TaqMan real-time PCR; assay type: cell-based, human
From the text: as §3
To examine whether TLR7 stimulation and subsequent NFAT dephosphorylation induces the expression of anergy-related genes, CD4^+ T cells were incubated for 2-16 hours with IMQ in the presence or absence of the TLR7 inhibitory sequence IRS661 and RNA was isolated to examine the hypothesis that TLR7 engagement induced expression of anergy-related genes previously described. As a control for anergy-related gene expression, CD4^+ T cells were incubated with either ionomycin and PMA or ionomycin alone. […] The effect observed in the regulation of these genes was TLR7-specific, as preincubation of CD4^+ T cells with IRS661 before IMQ treatment abrogated the increase in anergy-related gene expression.

[6] = tested on: CD4^+ T cells; assay: Conversion into regulatory T cells (Foxp3 expression, IL-10 secretion); assay type: cell-based, human
From the text: as §1, §2

[7] = NFAT shRNA-transduced cells, 3 days
[8] = TLR7 shRNA-transduced cells, 3 days
[9] = non-target shRNA-transduced cells, 3 days, listed as IMQ

CC(C)Cn1cnc2c(N)nc3ccccc3c21 [Imiquimod] was tested, and the “frequency of HIV-1-infected CD4+ T cells” value [1] was “directly correlated with the concentration of IMQ used”, the IFNγ secretion [2] was “dramatically reduced” and the IL-2 secretion [2] was “decrease”. For the same molecule, the IL-4 secretion [2] was “decrease”, the IL-17 secretion [2] was “dramatically reduced” and the IFNγ secretion ([2]; listed as IMQ) was “decrease”. The IL-17 secretion ([2]; listed as IMQ) was “decrease”, the “proliferation of CD4+ T cells (frequency of proliferating cells)” value [3] was “dramatically reduced” and the NFAT1 gene expression ([4]; 24 hours after stimulation) was “did not have an effect”. The IFNγ production [4, 7] was “not affected”, the IL-2 production [4, 7] was “not affected” and the “IMQ-induced decrease of IFNγ secretion” value [4, 8] was “abolished”. The “IMQ-induced decrease of IL-2 secretion” value [4, 8] was “abolished”, the IFNγ secretion [4, 9] was “decrease; also recorded: significantly reduced” and the IL-2 secretion [4, 9] was “decrease; also recorded: significantly reduced”. For the same molecule, the “expression of Sirt1, Itch, Cblb, Dgka, Egr2 and Egr3” value ([5]; IMQ treatment, 2 hours) was “all of them but Egr2 showed a significant upregulation”, the “expression of anergy-related genes” value ([5]; NFAT1-deficient cells vs non-target transduced, IMQ 2 hours) was “failed to upregulate” and the “expression of 12 anergy-related genes” value ([5]; compared to control and PMA and ionomycin) was “Ten of the 12 anergy-related genes examined were significantly upregulated”. The IL-10 secretion ([6]; ELISA day 3) was “neither Foxp3 expression (FIG. 11B-11C) or IL-10 secretion was increased” and the Foxp3 expression ([6]; day 4) was “neither Foxp3 expression (FIG. 11B-11C) or IL-10 secretion was increased”.
